We go through 5 molecules from patent US8354374B2, “Peptides having pharmacological activity for treating disorders associated with altered cell migration, such as cancer” (Pharmaphelix S.R.L., priority 2006, dated 2013).

In series [1] the test system is Cell lines of human or murine origin, derived from various tissues. The series is described as follows: Directional migration towards 10% FBS, all the cell lines tested. Type of series: cell-based. As to conditions: 100 pM PICM1. The procedure: Cell lines of human or murine origin, derived from various tissues, were subjected to in vitro directional migration tests employing Boyden chambers as described in example 4, and using 10% FBS as chemotactic source, in the presence/absence of 100 pM PICM1. Directional migration in response to FBS in the absence of PICM1 was taken as 100%, and the effect of PICM1 on cell migration was evaluated as a percentage of said value. The data represent the average of two independent experiments conducted in duplicate. In all the cell lines tested, an inhibiting effect of PICM1 on cell migration was observed (Table 4). Although the extent of the inhibition differs between the cell lines used, it was never less than 50%, and was also observed in murine melanoma B16 cells, which are unresponsive to Metastin (Ohtaki, T., et al. (2001) Nature 411, 613-617).

Series [2] relates to HUVEC cells (Human Umbilical Vein Endothelial Cells). Put plainly: In vitro neo-angiogenesis: VEGF-dependent tubule formation on matrigel. Type of series: cell-based. The procedure:
The in vitro neo-angiogenesis tests were conducted by exploiting the ability of endothelial cells to form, in the presence of pro-angiogenic factors, cords which extend to form a network of microtubules on a layer of polymerised matrigel. For this type of assay, 5×10^4 HUVEC cells (Human Umbilical Vein Endothelial Cells) per well were plated in 24-well plates, in which 300 μl of matrigel was left to polymerise in the presence of 40 ng/ml of VEGF (Vascular Endothelial Growth Factor), used as pro-angiogenic agent, and the peptides indicated, at different concentrations. Tubule formation was evaluated after 18 hours' incubation at 37° C. in 5% CO2, by counting the number of tubular structures in at least 5 fields, chosen at random, with an inverted microscope. The effect of the peptides on VEGF-dependent tubule-forming activity is calculated as a percentage of the number of tubular structures counted in the presence of VEGF (taken as 100%). The data (Table 9) represent the average of two experiments conducted in duplicate. The antagonistic effect of PICM1 and PICM57 on neo-angiogenesis in vitro is dose-dependent. This effect begins at concentrations of aM and reaches the peak action at a concentration of pM (20% of the number of tubular structures counted); 50% of the maximum effect is reached at concentrations of fM. The anti-angiogenic effect exerted by 50 nM of endostatin and the low inhibitory effect exerted by metastin[45-54] are shown by way of comparison.

In series [3] the test system is human fibrosarcoma HT1080 cells. Put plainly: In vitro cell invasion through matrigel towards 10% FBS (Boyden chamber). Type of series: cell-based. The procedure:
The in vitro cell invasion tests were conducted with Boyden chambers, using polyvinylpyrrolidone free filters, having pores with a diameter of 8 μm (Nucleopore), coated with 70 μg/filter of matrigel and DMEM containing 10% FBS as chemoattractant (Silvestri et al. Int. J. Cancer 102, 562-571, 2002). Human fibrosarcoma HT1080 cells (2×10^5 cells/sample) were deposited in the upper compartment of the chamber in a serum-free culture medium. The lower compartment of the chamber contained DMEM with the addition of 10% FBS as chemotactic source, and the peptides to be assayed, tested at the concentration indicated. The chambers, thus assembled, were placed at 37° C. in a humidified environment containing 5% CO2. After 18 hrs, the cells which had crossed the matrigel and adhered to the lower surface of the filters were fixed, stained and counted. The data represent the average of two independent experiments conducted in duplicate. The results, set out in Table 8, are expressed as the percentage of cells that invade the matrigel in the presence of FBS, but in the absence of peptide (100%). The inhibiting effect of PICM1 and PICM57 on the invasiveness of HT1080 cells is dose-dependent.

Series [4] has as its system human fibrosarcoma HT1080 cells in CD1 nude mice. Put plainly: Anti-metastatic effect in vivo: pulmonary metastasis of HT1080 cells injected into the caudal vein. As to conditions: 3 mg/Kg every 48 h. The procedure:
The anti-metastatic power of PICM1 was evaluated on an animal model. 2×10^6 human fibrosarcoma HT1080 cells, which cause pulmonary metastasis in the experimental model (Schweinitz A, et al., J. Biol. Chem. 279:33613, 2004), were suspended in saline solution and injected into the caudal vein of twenty 7-week-old CD1 nude mice. 24 hours after the inoculation of the tumour cells, groups of 10 animals were treated with a slow injection of 3 mg/Kg of PICM1, dissolved in 100 μl of saline solution, every 48 h, with the animal immobilised. The 10 control animals received the same injection treatment, but with the saline solution only. Each animal was weighed and inspected for dyspnoea every day. […] All the treated and control animals were sacrificed, and an autopsy was conducted. The lungs, liver, kidneys, spleen and heart were subjected to macroscopic and microscopic analysis.

The test system of series [5] is human fibrosarcoma HT1080 cells. Put plainly: Directional migration towards 10% FBS in Boyden chamber. Type of series: cell-based. The procedure:
The effect of PICM57 described in example 3 on the cell migration of human fibrosarcoma HT1080 cells was tested. A Boyden chamber equipped with polycarbonate filters, having pores with a diameter of 8 μm (Nucleopore), free of polyvinylpyrrolidone and coated with 5 μg/ml of vitronectin (Promega), was used, as reported in the literature (Carriero et al., Cancer Res. 59, 5307, 1999). 3×10^4 cells, in serum-free DMEM (Dulbecco Modified Eagle Medium), were deposited in the upper compartment of the Boyden chamber. The lower chamber was packed with DMEM containing 10% FBS (Foetal Bovine Serum) as a source of chemotactics, in the presence of increasing concentrations of PICM57. The cells were incubated for 4 h at 37° C. in humidified air containing 5% CO2. After incubation, the cells adhering to the upper surface of the filter were mechanically removed, and the migrated cells adhering to the lower surface of the filter were fixed in ethanol, stained with haematoxylin, and counted at 200× in 10 fields/filter chosen at random. The directional migration in response to FBS in the absence of PICM57 was taken as 100% and the effect of PICM57 on cell migration was evaluated in percentage terms. The data represent the average of three independent experiments conducted in duplicate. The antagonistic effect of PICM57 on migration of HT1080 cells towards FBS is dose-dependent (Table 2). It begins at concentrations of 1 aM, reaches 50% of its maximum value at concentrations of 1 fM, and reaches the maximum effect at concentrations of 10 fM (66% of inhibition).
The mobility induced by FBS in the presence of Metastin[45-54] was evaluated under the same experimental conditions (Table 3). […]

Series [6] in a line: in vivo. To be noted: rat.
For the next series, the system named is mouse. To be noted: acute.
The next series relates to rat. As to conditions: acute.
Series [7] in a line: in vivo. To be noted: mouse.
Series [8] concerns murine melanoma B16 cells. To be noted: Ohtaki et al. 2001; cited from earlier work.
The next series has as its target T1, FPR (Homo sapiens, UniProt P21462).
T1 sequence (P21462 1-350): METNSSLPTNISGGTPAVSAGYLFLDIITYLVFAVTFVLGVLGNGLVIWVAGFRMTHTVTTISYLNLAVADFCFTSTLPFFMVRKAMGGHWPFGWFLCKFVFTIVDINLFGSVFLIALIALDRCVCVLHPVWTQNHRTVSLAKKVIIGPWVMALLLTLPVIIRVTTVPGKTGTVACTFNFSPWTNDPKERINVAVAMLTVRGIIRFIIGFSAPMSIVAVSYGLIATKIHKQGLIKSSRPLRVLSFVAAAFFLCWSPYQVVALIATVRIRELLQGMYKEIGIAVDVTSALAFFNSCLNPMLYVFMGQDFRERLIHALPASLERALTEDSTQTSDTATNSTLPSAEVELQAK
As to conditions: cells pre-incubated with 10 μM peptide.

The mark [9] stands for this setting: injection, sacrifice after 22 days.
Setting [10] is: 10 pM peptide, 10% FBS alone = 100%.
Setting [11] is: 10 nM peptide, 10% FBS alone = 100%.
[12] abbreviates: 1 aM peptide, migration toward 10% FBS alone = 100%.
[13] abbreviates: 10 aM peptide, 10% FBS alone = 100%.
[14] abbreviates: 10 fM peptide, 10% FBS alone = 100%.

Square brackets hold non-standard residues; d marks the D form. Peptide text beside a SMILES is read from it. ξ: configuration not given here. ξαMeF = CC(N)(Cc1ccccc1)C(=O)O; Aib = CC(C)(N)C(=O)O

Regarding `CC(=O)N[C@@H](CCCNC(=N)N)C(=O)N[C@@H](CCC(=O)O)C(=O)N[C@@H](CCCNC(=N)N)C(=O)N[C@@H](Cc1ccccc1)C(N)=O` [PICM1, Ac-Arg-Glu-Arg-Phe-NH2] (Ac-RERF-NH2), the “extent of the inhibition of cell migration” value in series [1] is listed as ≥ 50%. The “concentration at which 50% of the maximum effect on neo-angiogenesis is reached” value in series [2] is recorded as “fM”. The “VEGF-dependent tubule-forming activity (%)” value in [2] (10 pM peptide) came to 30%; in series [2] (10 nM peptide) it was 22%; in series [2] (1 aM peptide, 40 ng/ml VEGF = 100%) it was 104%; in [2] (10 aM peptide), 77%; in [2] (10 fM peptide) it was 65%. For the same molecule, the “tubular structures at peak action (% of VEGF-only control)” value in [2] (peak action at a concentration of pM) is recorded as 20%. Further, the “Cell invasion towards 10% FBS (%)” value in [3] (10 pM peptide) was 55%; in series [3] (10 nM peptide), 44%; in [3] (1 aM peptide, FBS without peptide = 100%), 100%; in series [3] (10 aM peptide), 101%; in [3] (10 fM peptide), 62%. In addition, the “extensive sub-pleural neoformations on macroscopic analysis of the lungs” value in series [4] (setting [9]) is “not observed in the treated animals”. Moreover, the “pulmonary metastasis on microscopic observation” value in series [4] (setting [9]) is given as “did not exhibit the presence of metastasis”. Also, the “histo-morphological alterations of lungs, liver, kidneys, spleen and heart” value in [4] (autopsy) is “None of the organs examined, of the controlled or treated animals, presented any histo-morphological alterations, with the exception of the lungs”. For the same molecule, the “Cell Migration towards 10% FBS (%)” value in [5] (setting [10]) stood at 46%; in series [5] (100 pM peptide, 10% FBS alone = 100%), 34%; in series [5] (setting [11]), 35%; in [5] (setting [12]), 99%; in [5] (setting [13]), 70%; in series [5] (setting [14]), 56%.

For `CC(=O)N[C@@H](CCCNC(=N)N)C(=O)NC(C)(C)C(=O)N[C@@H](CCCNC(=N)N)C(=O)NC(C)(Cc1ccccc1)C(N)=O` (stereo partly drawn) [PICM57, Ac-Arg-Aib-Arg-α(Me)Phe-NH2] (Ac-R[Aib]R[ξαMeF]-NH2), the LD50 in the series “in vivo [6]” was found to be 65 mg/kg; in “in vivo [7]”, 30 mg/kg. Further, the “dose with all animals alive” value in the series on mouse was determined as 28 mg/kg; with rat, 58 mg/kg. The results for the “dose with all animals dead” value in the series with mouse and in the series with rat were 32 mg/kg and 70 mg/kg, respectively.

Turning to Endostatin [reference compound], in series [2] (10 nM peptide), the “VEGF-dependent tubule-forming activity (%)” value was 30%.

On to Metastin, for which, in series [8], the “responsiveness of B16 cells” value was “unresponsive”.

As to Metastin[45-54] [reference compound], the “VEGF-dependent tubule-forming activity (%)” value was determined as 63% in series [2] (10 pM peptide), 65% in series [2] (10 nM peptide) and 90% in series [2] (10 fM peptide). Further, in the series with FPR, the “reduction of binding of fluorescinated formyl-Nle-Leu-Phe-Nle-Tyr-Lys to the cell surface” value is given as “does not modify”. Also, the “Cell Migration towards 10% FBS (%)” value in series [5] (setting [10]) came out at 53%; in series [5] (setting [11]), 56%; in [5] (setting [12]), 100%; in [5] (setting [13]), 83%; in [5] (setting [14]), 73%. In addition, the “concentration needed for comparable inhibition of migration, times greater than PICM57” value in [5] (10 nM Metastin[45-54] vs. 10 fM PICM57) was 1,000 times.
